# Source: ChEMBL document CHEMBL3132831, “Hedgehog signalling pathway inhibitors as cancer suppressing agents” (Medchemcomm, 2014)
# Experiments:
# Sonic hedgehog protein [1] = molecular target: T1, Sonic hedgehog protein (Mus musculus, UniProt Q62226); assay: Inhibition of SHh palmitoylation in mouse NIH3T3 cells; assay type: cell-based
# Sonic hedgehog protein [2] = molecular target: T1, Sonic hedgehog protein; assay: Inhibition of SHh in mouse NIH3T3 cells assessed as Gli activation; assay type: cell-based
# [3] = Cytotoxicity against human SK-N-BE(2) cells after 72 hrs by fluorometric microculture cytotoxicity assay; assay type: functional; settings: SKNBE2, 72 h, pooled result: one value given for 7 cell lines, strains, targets or settings
# [4] = Inhibition of hedgehog pathway in mouse C3H10T1/2 cells assessed as alkaline phosphatase enzyme activity; assay type: cell-based; settings: c3h 10t1/2
# [5] = Inhibition of SHH-mediated mouse C3H10T1/2 cell differentiation to osteoblasts; settings: c3h 10t1/2
# Sonic hedgehog protein [6] = molecular target: T1, Sonic hedgehog protein; assay: Inhibition of SHh in mouse LIGHT2 cells; assay type: cell-based
# [7] = Inhibition of SAG-induced hedgehog pathway in mouse SHH-LIGHT2 cells; assay type: cell-based
# Protein smoothened = Protein smoothened (Homo sapiens, UniProt Q99835, D473H); assay: Inhibition of Smo D473H mutant (unknown origin) expressed in mouse C3H10T1/2 cells by luciferase assay; assay type: cell-based, C3H 10T1/2
# Sequence of Protein smoothened (Q99835 28-787 D473H limits assumed): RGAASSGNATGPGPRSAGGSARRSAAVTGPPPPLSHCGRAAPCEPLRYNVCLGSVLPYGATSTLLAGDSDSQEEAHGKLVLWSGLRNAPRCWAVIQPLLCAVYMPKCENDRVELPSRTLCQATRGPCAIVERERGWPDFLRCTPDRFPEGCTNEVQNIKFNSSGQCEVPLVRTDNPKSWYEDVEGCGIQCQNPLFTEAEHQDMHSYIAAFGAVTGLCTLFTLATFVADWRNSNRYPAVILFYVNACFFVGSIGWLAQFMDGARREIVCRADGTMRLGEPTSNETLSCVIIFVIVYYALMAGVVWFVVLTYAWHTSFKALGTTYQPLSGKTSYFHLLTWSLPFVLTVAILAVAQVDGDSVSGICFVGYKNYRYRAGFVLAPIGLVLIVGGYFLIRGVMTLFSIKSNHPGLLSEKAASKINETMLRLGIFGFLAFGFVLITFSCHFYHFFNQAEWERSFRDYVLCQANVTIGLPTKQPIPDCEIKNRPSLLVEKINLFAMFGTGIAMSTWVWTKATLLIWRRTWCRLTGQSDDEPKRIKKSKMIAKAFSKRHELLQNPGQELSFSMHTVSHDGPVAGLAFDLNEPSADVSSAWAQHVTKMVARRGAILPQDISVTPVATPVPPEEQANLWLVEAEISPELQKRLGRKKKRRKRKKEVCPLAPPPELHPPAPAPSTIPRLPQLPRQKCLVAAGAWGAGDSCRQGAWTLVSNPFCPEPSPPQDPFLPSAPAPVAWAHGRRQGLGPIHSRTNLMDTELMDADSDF
# [8] = Decrease of cell density in human CCC cells at 50 nM up to 24 hrs; assay type: functional; design: scale not given: the % may be the effect or the level left
# [9] = Antiproliferative activity against mouse medulloblastoma cells expressing wild type SMO; assay type: functional; settings: Medulloblastoma cell
# T1 sequence (Q62226 25-198 limits assumed): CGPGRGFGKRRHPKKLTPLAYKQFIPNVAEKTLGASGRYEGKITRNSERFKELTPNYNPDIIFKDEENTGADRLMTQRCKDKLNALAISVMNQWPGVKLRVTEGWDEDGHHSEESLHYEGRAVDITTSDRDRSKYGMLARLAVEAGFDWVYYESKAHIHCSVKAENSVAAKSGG
smiles,measurement,setting,value
CCC(C)CNCC(=O)N1CCc2sccc2C1COc1cccc(C)c1 (centres undefined),IC50,Sonic hedgehog protein [1],10 µM
same,IC50,Sonic hedgehog protein [2],10 µM
CN(C)c1ccccc1CN1CCCN(Cc2ccccc2N(C)C)C1c1ccncc1,GI50,[3],5.82 µM
Clc1ccc(N2CCC(N3CCCC3)CC2)cc1-c1nc2ccccc2[nH]1,IC50,[4],23 nM
CC1=C2C[C@H]3[C@@H](CCC4=CC(=O)CC[C@@]43C)[C@@H]2CC[C@@]2(C1)O[C@@H]1C[C@H](C)CN[C@H]1[C@H]2C,EC50,[5],200 nM
O=C(NN1CCN(c2nc(-c3cnc4ccccc4n3)no2)CC1)C1CCCCC1,IC50,Sonic hedgehog protein [6],5 nM
OCCNc1nc(N2CCN(c3ccccc3)CC2)nc2ccccc12,IC50,[7],< 10 µM
Cc1c(Cc2ccccc2)nnc(N2CCN(c3cnc(C(C)(C)O)cn3)[C@H](C)C2)c1C [LEQ506],IC50,Protein smoothened,< 100 nM
COc1ccc(OC)c2c1cc1n2CC(C)(C(=O)NC2CCCCCCC2)N(CCN(C)C)C1=O (centres undefined),IC50,[7],< 10 µM
C=C1CC[C@H](O)C/C1=C/C=C1\CCC[C@]2(C)[C@@H]([C@H](C)CCCC(C)C)CC[C@@H]12 [CHOLECALCIFEROL],Activity,[8],<=90%
O=C(NN1CCN(c2nc(-c3ccc4ccccc4n3)no2)CC1)C1CCC(F)(F)CC1,IC50,Sonic hedgehog protein [6],25 nM
N#C/C(C(=O)c1ccc(Cl)cc1Cl)=C1\NC(=O)c2ccccc2N1,IC50,[7],< 10 µM
COCCOC(=O)C1=C(C)NC2=C(C(=O)CC(c3ccccc3OC)C2)C1c1cccc(O)c1 (centres undefined),IC50,[7],< 10 µM
CCC(C)n1ncn(-c2ccc(N3CCN(c4ccc(OCC5COC(Cn6cncn6)(c6ccc(Cl)cc6Cl)O5)cc4)CC3)cc2)c1=O (centres undefined) [ITRACONAZOLE],IC50,[9],55 nM
